Legend:
[1] = tested on: recombinant NL4-3 virus (nef section replaced with Renilla luciferase gene) in MT-2 cells; experiment: HIV cell culture assay (antiviral activity, luciferase readout); assay type: cell-based; conditions: Renilla, NL43, Table 1; MT-2 cells infected for 4-5 days with recombinant NL4-3 luciferase virus
In short: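 Serially diluted compounds were present throughout a 4-5 day infection of MT-2 cells by recombinant NL4-3 whose nef region partly encodes Renilla luciferase. Antiviral activity was taken from live-cell luciferase signal, with the 50% effective concentration fitted by the exponential median effect equation.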

[2] = Compound cytotoxicity, XTT-based colorimetric assay; assay type: cell-based; conditions: human, uninfected MT2 cells, Table 1, day 4, XTT
In short: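 XTT colorimetric read-out on day 4 gave CC50 values, using MT2 cells left uninfected but otherwise handled as in the antiviral assay.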

Structure (SMILES)	EC50 [1] [nM]	CC50 at 4 days [2] [nM]
NC(=O)c1cc(-c2cc3[nH]ncc3nc2[C@H](Cc2cc(F)cc(F)c2)NC(=O)Cn2nc(C(F)F)c3c2C(F)(F)[C@@H]2C[C@H]32)ccc1Cl [Example 10.3, 2-Chloro-5-(5-((S)-1-(2-((3bS,4aR)-3-(difluoromethyl)-5,5-difluoro-3b,4,4a,5-tetrahydro-1H-cyclopropa[3,4]cyclopenta[1,2-c]pyrazol-1-yl)acetamido)-2-(3,5-difluorophenyl)ethyl)-1H-pyrazolo[4,3-b]pyridin-6-yl)benzamide]	84	> 10000
N#Cc1ccc(-c2cc3[nH]ncc3nc2[C@H](Cc2cc(F)cc(F)c2)NC(=O)Cn2nc(C(F)F)c3c2C(F)(F)[C@@H]2C[C@H]32)cc1F [Example 10.4, N—((S)-1-(6-(4-cyano-3-fluorophenyl)-1H-pyrazolo[4,3-b]pyridin-5-yl)-2-(3,5-difluorophenyl)ethyl)-2-((3bS,4aR)-3-(difluoromethyl)-5,5-difluoro-3b,4,4a,5-tetrahydro-1H-cyclopropa[3,4]cyclopenta[1,2-c]pyrazol-1-yl)acetamide]	1150	8240
N#Cc1ccc(-c2cc3[nH]ncc3nc2[C@H](Cc2cc(F)cc(F)c2)NC(=O)Cn2nc(C(F)F)c3c2C(F)(F)[C@@H]2C[C@H]32)cc1 [Example 10.5, N—((S)-1-(6-(4-cyanophenyl)-1H-pyrazolo[4,3-b]pyridin-5-yl)-2-(3,5-difluorophenyl)ethyl)-2-((3bS,4aR)-3-(difluoromethyl)-5,5-difluoro-3b,4,4a,5-tetrahydro-1H-cyclopropa[3,4]cyclopenta[1,2-c]pyrazol-1-yl)acetamide]	300	9350
NC(=O)c1cc(-c2cc3[nH]ncc3nc2[C@H](Cc2cc(F)cc(F)c2)NC(=O)Cn2nc(C(F)F)c3c2C(F)(F)[C@@H]2C[C@H]32)ccc1F [Example 10.6, 5-(5-((S)-1-(2-((3bS,4aR)-3-(difluoromethyl)-5,5-difluoro-3b,4,4a,5-tetrahydro-1H-cyclopropa[3,4]cyclopenta[1,2-c]pyrazol-1-yl)acetamido)-2-(3,5-difluorophenyl)ethyl)-1H-pyrazolo[4,3-b]pyridin-6-yl)-2-fluorobenzamide]	16	> 10000
CNC(=O)c1cc(-c2cc3[nH]ncc3nc2[C@H](Cc2cc(F)cc(F)c2)NC(=O)Cn2nc(C(F)F)c3c2C(F)(F)[C@@H]2C[C@H]32)ccc1F [Example 10.7, 5-(5-((S)-1-(2-((3bS,4aR)-3-(difluoromethyl)-5,5-difluoro-3b,4,4a,5-tetrahydro-1H-cyclopropa[3,4]cyclopenta[1,2-c]pyrazol-1-yl)acetamido)-2-(3,5-difluorophenyl)ethyl)-1H-pyrazolo[4,3-b]pyridin-6-yl)-2-fluoro-N-methylbenzamide]	51	> 10000
COC(=O)c1cccc(-c2cc3[nH]ncc3nc2[C@H](Cc2cc(F)cc(F)c2)NC(=O)Cn2nc(C(F)F)c3c2C(F)(F)[C@@H]2C[C@H]32)c1 [Example 10.8, Methyl 3-(5-((S)-1-(2-((3bS,4aR)-3-(difluoromethyl)-5,5-difluoro-3b,4,4a,5-tetrahydro-1H-cyclopropa[3,4]cyclopenta[1,2-c]pyrazol-1-yl)acetamido)-2-(3,5-difluorophenyl)ethyl)-1H-pyrazolo[4,3-b]pyridin-6-yl)benzoate]	1200	> 10000
COC(=O)c1cc(-c2cc3[nH]ncc3nc2[C@H](Cc2cc(F)cc(F)c2)NC(=O)Cn2nc(C(F)F)c3c2C(F)(F)[C@@H]2C[C@H]32)ccc1Cl [Example 10.9, Methyl 2-chloro-5-(5-((S)-1-(2-((3bS,4aR)-3-(difluoromethyl)-5,5-difluoro-3b,4,4a,5-tetrahydro-1H-cyclopropa[3,4]cyclopenta[1,2-c]pyrazol-1-yl)acetamido)-2-(3,5-difluorophenyl)ethyl)-1H-pyrazolo[4,3-b]pyridin-6-yl)benzoate]	1080	8950
O=C(Cn1nc(C(F)F)c2c1C(F)(F)[C@@H]1C[C@H]21)N[C@@H](Cc1cc(F)cc(F)c1)c1nc2cn[nH]c2cc1-c1cccc(C(=O)O)c1 [Example 10.10, 3-(5-((S)-1-(2-((3bS,4aR)-3-(difluoromethyl)-5,5-difluoro-3b,4,4a,5-tetrahydro-1H-cyclopropa[3,4]cyclopenta[1,2-c]pyrazol-1-yl)acetamido)-2-(3,5-difluorophenyl)ethyl)-1H-pyrazolo[4,3-b]pyridin-6-yl)benzoic acid]	140	> 10000
O=C(Cn1nc(C(F)F)c2c1C(F)(F)[C@@H]1C[C@H]21)N[C@@H](Cc1cc(F)cc(F)c1)c1nc2cn[nH]c2cc1-c1ccc(Cl)c(C(=O)O)c1 [Example 10.11, 2-Chloro-5-(5-((S)-1-(2-((3bS,4aR)-3-(difluoromethyl)-5,5-difluoro-3b,4,4a,5-tetrahydro-1H-cyclopropa[3,4]cyclopenta[1,2-c]pyrazol-1-yl)acetamido)-2-(3,5-difluorophenyl)ethyl)-1H-pyrazolo[4,3-b]pyridin-6-yl)benzoic acid]	810	> 10000
O=C(Cn1nc(C(F)F)c2c1C(F)(F)[C@@H]1C[C@H]21)N[C@@H](Cc1cc(F)cc(F)c1)c1nc2cn[nH]c2cc1-c1ccc2c(c1)CNC2=O [Example 10.12, 2-((3bS,4aR)-3-(difluoromethyl)-5,5-difluoro-3b,4,4a,5-tetrahydro-1H-cyclopropa[3,4]cyclopenta[1,2-c]pyrazol-1-yl)-N—((S)-2-(3,5-difluorophenyl)-1-(6-(1-oxoisoindolin-5-yl)-1H-pyrazolo[4,3-b]pyridin-5-yl)ethyl)acetamide]	95	> 10000
O=C(Cn1nc(C(F)F)c2c1C(F)(F)[C@@H]1C[C@H]21)N[C@@H](Cc1cc(F)cc(F)c1)c1nc2cn[nH]c2cc1-c1cccc2c1CNC2=O [Example 10.13, 2-((3bS,4aR)-3-(difluoromethyl)-5,5-difluoro-3b,4,4a,5-tetrahydro-1H-cyclopropa[3,4]cyclopenta[1,2-c]pyrazol-1-yl)-N—((S)-2-(3,5-difluorophenyl)-1-(6-(1-oxoisoindolin-4-yl)-1H-pyrazolo[4,3-b]pyridin-5-yl)ethyl)acetamide]	12	> 10000
O=C(Cn1nc(C(F)F)c2c1C(F)(F)[C@@H]1C[C@H]21)N[C@@H](Cc1cc(F)cc(F)c1)c1nc2cn[nH]c2cc1-c1ccc2c(c1)C(=O)NC2 [Example 10.14, 2-((3bS,4aR)-3-(difluoromethyl)-5,5-difluoro-3b,4,4a,5-tetrahydro-1H-cyclopropa[3,4]cyclopenta[1,2-c]pyrazol-1-yl)-N—((S)-2-(3,5-difluorophenyl)-1-(6-(3-oxoisoindolin-5-yl)-1H-pyrazolo[4,3-b]pyridin-5-yl)ethyl)acetamide]	2.5	> 10000
N#Cc1cc(-c2cc3[nH]ncc3nc2[C@H](Cc2cc(F)cc(F)c2)NC(=O)Cn2nc(C(F)F)c3c2C(F)(F)[C@@H]2C[C@H]32)ccc1Cl [Example 10.15, N—((S)-1-(6-(4-chloro-3-cyanophenyl)-1H-pyrazolo[4,3-b]pyridin-5-yl)-2-(3,5-difluorophenyl)ethyl)-2-((3bS,4aR)-3-(difluoromethyl)-5,5-difluoro-3b,4,4a,5-tetrahydro-1H-cyclopropa[3,4]cyclopenta[1,2-c]pyrazol-1-yl)acetamide]	1170	5500

Source: patent US10954252B1, “Inhibitors of human immunodeficiency virus replication” (ViiV HEALTHCARE UK (NO.5) LIMITED, priority 2017, dated 2021)
